These results are taken from PubChem BioAssay AID256 (DTP/NCI, 2004).

Where “and” joins values, the source holds several entries; their conditions need not be identical. Equal entries are not always repeated. Toxic doses and inconclusive results are not listed.

In this experiment the test system is CD2F1 mice, L1210 leukemia ip, survival T/C. Nature of the experiment: NCI In Vivo Anticancer Drug Screen. Data for tumor model L1210 Leukemia (intraperitoneal) in CD2F1 (CDF1) mice. To be noted: higher = longer survival. The method in brief:
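Transplantable tumor in mice; compound-treated vs vehicle-treated groups. Read-out = treated/control ratio of the measured endpoint.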

Setting [1] is: endpoint: mean survival time, dose: 100.0 mg/kg/injection, schedule: Q01DX001 (ip), vehicle: saline with Tween-80.
Where [2] appears, read: endpoint: mean survival time, dose: 400.0 mg/kg/injection, schedule: Q01DX001 (ip), vehicle: saline with Tween-80.
[3] abbreviates: endpoint: mean survival time, dose: 100.0 mg/kg/injection, schedule: Q01DX009 (ip), vehicle: saline with Tween-80.
Where [4] appears, read: endpoint: mean survival time, dose: 200.0 mg/kg/injection, schedule: Q01DX009 (ip), vehicle: saline with Tween-80.
Setting [5] is: endpoint: mean survival time, dose: 400.0 mg/kg/injection, schedule: Q01DX009 (ip), vehicle: saline with Tween-80.
The mark [6] stands for this setting: endpoint: mean survival time, dose: 25.0 mg/kg/injection, schedule: Q04DX003 (ip), vehicle: saline.
The mark [7] stands for this setting: endpoint: mean survival time, dose: 100.0 mg/kg/injection, schedule: Q04DX003 (ip), vehicle: saline.
Where [8] appears, read: endpoint: mean survival time, dose: 200.0 mg/kg/injection, schedule: Q04DX003 (ip), vehicle: saline.
Where [9] appears, read: endpoint: mean survival time, dose: 100.0 mg/kg/injection, schedule: Q04DX003 (ip), vehicle: saline with Tween-80.
Setting [10] is: endpoint: mean survival time, dose: 200.0 mg/kg/injection, schedule: Q04DX003 (ip), vehicle: saline with Tween-80.
The mark [11] stands for this setting: endpoint: mean survival time, dose: 400.0 mg/kg/injection, schedule: Q04DX003 (ip), vehicle: saline with Tween-80.
Where [12] appears, read: endpoint: mean survival time, dose: 50.0 mg/kg/injection, schedule: Q01DX009 (ip), vehicle: Klucel (hydroxypropylcellulose) (HPC).
The mark [13] stands for this setting: endpoint: mean survival time, dose: 100.0 mg/kg/injection, schedule: Q01DX009 (ip), vehicle: Klucel (hydroxypropylcellulose) (HPC).
Where [14] appears, read: endpoint: mean survival time, dose: 200.0 mg/kg/injection, schedule: Q01DX009 (ip), vehicle: Klucel (hydroxypropylcellulose) (HPC).
[15] abbreviates: endpoint: mean survival time, dose: 50.0 mg/kg/injection, schedule: Q04DX003 (ip), vehicle: saline.

As to `NC(=O)c1n[nH]c(C2CC(O)C(CO)O2)n1` (stereo not given), the T/C (endpoint: mean survival time, dose: 12.5 mg/kg/injection, schedule: Q01DX005 (ip), vehicle: water) is 96 % of control; the T/C (endpoint: mean survival time, dose: 25.0 mg/kg/injection, schedule: Q01DX005 (ip), vehicle: water) is 91 % of control; the T/C (endpoint: mean survival time, dose: 50.0 mg/kg/injection, schedule: Q01DX005 (ip), vehicle: water) is 92 % of control; the T/C (endpoint: mean survival time, dose: 100.0 mg/kg/injection, schedule: Q01DX005 (ip), vehicle: water) was 96 % of control; the T/C (endpoint: mean survival time, dose: 200.0 mg/kg/injection, schedule: Q01DX005 (ip), vehicle: water) was 94 % of control.

Regarding `C1OC1C1CO1` (stereo not given), the T/C is, setting by setting: (endpoint: mean survival time, dose: 1.25 mg/kg/injection, schedule: Q01DX009 (ip), vehicle: saline) 97 % of control and 98 % of control; (endpoint: mean survival time, dose: 2.5 mg/kg/injection, schedule: Q01DX009 (ip), vehicle: saline) 95 % of control and 100 % of control; (endpoint: mean survival time, dose: 5.0 mg/kg/injection, schedule: Q01DX009 (ip), vehicle: saline) 96 % of control and 103 % of control; (endpoint: mean survival time, dose: 10.0 mg/kg/injection, schedule: Q01DX009 (ip), vehicle: saline) 98 % of control and 105 % of control; (endpoint: mean survival time, dose: 20.0 mg/kg/injection, schedule: Q01DX009 (ip), vehicle: saline) 103 % of control and 112 % of control; (endpoint: mean survival time, dose: 40.0 mg/kg/injection, schedule: Q01DX009 (ip), vehicle: saline) 108 % of control.

`COc1ccc(NC(C)=O)c(O)c1C`: the T/C is 95 % of control under setting [1] and 90 % of control under setting [2].

With `O=C1OC2C3CC4C2OC(=O)C4C13` (stereo not given), the T/C is 102 % of control under setting [3], 98 % of control under setting [4] and 90 % of control under setting [5].

With `COC(=O)C(Br)c1ccccc1` (stereo not given), the T/C by setting is: under setting [1], 108 % of control; (endpoint: mean survival time, dose: 200.0 mg/kg/injection, schedule: Q01DX001 (ip), vehicle: saline with Tween-80) 91 % of control; under setting [2], 97 % of control.

On to `C=CCC(c1ccccc1)(c1ccccc1)c1ccccc1`, for which the T/C is 93 % of control (endpoint: mean survival time, dose: 75.0 mg/kg/injection, schedule: Q01DX001 (ip), vehicle: saline); 95 % of control (endpoint: mean survival time, dose: 150.0 mg/kg/injection, schedule: Q01DX001 (ip), vehicle: saline); 97 % of control (endpoint: mean survival time, dose: 300.0 mg/kg/injection, schedule: Q01DX001 (ip), vehicle: saline).

As for `CC(C)(CO)N=Cc1ccccc1F`, the T/C was 97 % of control (endpoint: mean survival time, dose: 75.0 mg/kg/injection, schedule: Q01DX001 (ip), vehicle: other); 96 % of control (endpoint: mean survival time, dose: 150.0 mg/kg/injection, schedule: Q01DX001 (ip), vehicle: other); 93 % of control (endpoint: mean survival time, dose: 300.0 mg/kg/injection, schedule: Q01DX001 (ip), vehicle: other).

In the case of `NCC(F)(F)C(F)(F)C(F)(F)CN`, the T/C (endpoint: mean survival time, dose: 50.0 mg/kg/injection, schedule: Q01DX009 (ip), vehicle: saline with Tween-80) is 98 % of control; the T/C under setting [3] was 107 % of control; the T/C under setting [4] is 103 % of control.

Regarding `CCC(CC)(C[NH-])C[NH-].[Cl][Pt+2][Cl]`, the T/C (endpoint: mean survival time, dose: 1.56 mg/kg/injection, schedule: Q04DX003 (ip), vehicle: saline) was 105 % of control; the T/C (endpoint: mean survival time, dose: 3.12 mg/kg/injection, schedule: Q04DX003 (ip), vehicle: saline) was 118 % of control; the T/C (endpoint: mean survival time, dose: 6.25 mg/kg/injection, schedule: Q04DX003 (ip), vehicle: saline) was 119 % of control; the T/C (endpoint: mean survival time, dose: 12.5 mg/kg/injection, schedule: Q04DX003 (ip), vehicle: saline with Tween-80) was 319 % of control; the T/C (endpoint: mean survival time, dose: 12.5 mg/kg/injection, schedule: Q04DX003 (ip), vehicle: saline) is 155 % of control; the T/C (endpoint: mean survival time, dose: 25.0 mg/kg/injection, schedule: Q04DX003 (ip), vehicle: saline with Tween-80) is 307 % of control. Besides, the T/C by setting is: under setting [6], 227 % of control; (endpoint: mean survival time, dose: 50.0 mg/kg/injection, schedule: Q04DX003 (ip), vehicle: saline with Tween-80) 86 % of control; (endpoint: median survival time, dose: 1.5 mg/kg/injection, schedule: Q01DX009 (ip), vehicle: carboxymethylcellulose (CMC)) 234 % of control; (endpoint: median survival time, dose: 3.0 mg/kg/injection, schedule: Q01DX009 (ip), vehicle: carboxymethylcellulose (CMC)) 203 % of control; (endpoint: median survival time, dose: 6.0 mg/kg/injection, schedule: Q01DX001 (ip), vehicle: carboxymethylcellulose (CMC)) 203 % of control; (endpoint: median survival time, dose: 6.0 mg/kg/injection, schedule: Q01DX009 (ip), vehicle: carboxymethylcellulose (CMC)) 109 % of control. Besides, the T/C was 312 % of control (endpoint: median survival time, dose: 9.0 mg/kg/injection, schedule: Q01DX001 (ip), vehicle: carboxymethylcellulose (CMC)); 98 % of control (endpoint: median survival time, dose: 9.0 mg/kg/injection, schedule: Q01DX009 (ip), vehicle: carboxymethylcellulose (CMC)); 312 % of control (endpoint: median survival time, dose: 12.0 mg/kg/injection, schedule: Q01DX001 (ip), vehicle: carboxymethylcellulose (CMC)); 106 % of control (endpoint: median survival time, dose: 15.0 mg/kg/injection, schedule: Q01DX001 (ip), vehicle: carboxymethylcellulose (CMC)).

`CCCCNc1c(C(=O)N2CCCCC2)cnc2c1cnn2CC`: the T/C under setting [7] is 97 % of control and the T/C under setting [8] was 101 % of control.

With `C/C(=N/O)c1ccc(F)cc1`, the T/C under setting [3] is 100 % of control; the T/C under setting [9] is 94 % of control and 97 % of control; the T/C under setting [4] was 93 % of control and 95 % of control; the T/C under setting [10] is 94 % of control; the T/C under setting [5] is 94 % of control and 102 % of control; the T/C under setting [11] was 89 % of control and 96 % of control.

With `Cn1c(CC(O)c2nc3ccccc3n2C)nc2ccccc21` (stereo not given), the T/C by setting is: under setting [12], 97 % of control; under setting [13], 101 % of control; under setting [14], 120 % of control.

In the case of `COc1cccc2c1C(=O)c1c(O)c3c(c(O)c1C2=O)C[C@@](O)(C(=O)COC(=O)Cc1ccccc1)C[C@@H]3OC1CC(N)C(O)C(C)O1` (stereo not given in full), the T/C is 123 % of control (endpoint: mean survival time, dose: 0.5 mg/kg/injection, schedule: Q01DX009 (ip), vehicle: saline with Tween-80); 118 % of control (endpoint: mean survival time, dose: 1.32 mg/kg/injection, schedule: Q01DX009 (ip), vehicle: saline); 114 % of control (endpoint: mean survival time, dose: 2.0 mg/kg/injection, schedule: Q01DX009 (ip), vehicle: saline); 117 % of control (endpoint: mean survival time, dose: 3.0 mg/kg/injection, schedule: Q01DX009 (ip), vehicle: saline); 96 % of control (endpoint: mean survival time, dose: 8.0 mg/kg/injection, schedule: Q01DX009 (ip), vehicle: saline with Tween-80); 158 % of control (endpoint: mean survival time, dose: 10.0 mg/kg/injection, schedule: Q04DX003 (ip), vehicle: saline with Tween-80). The T/C is, setting by setting: (endpoint: mean survival time, dose: 20.0 mg/kg/injection, schedule: Q01DX001 (ip), vehicle: saline with Tween-80) 107 % of control; (endpoint: mean survival time, dose: 20.0 mg/kg/injection, schedule: Q04DX003 (ip), vehicle: saline with Tween-80) 102 % of control.

Regarding `O=[N+]([O-])c1cccc(/C=C/C=C/c2ccc(Cl)c(S(=O)(=O)F)c2)c1`, the T/C reads like this: under setting [3], 100 % of control; under setting [9], 100 % of control; under setting [4], 94 % of control; under setting [10], 88 % of control; under setting [5], 97 % of control; under setting [11], 90 % of control.

With `CSCCC(NC(=O)COc1ccc(Cl)cc1Cl)C(=O)O` (stereo not given), the T/C runs as follows: under setting [12], 100 % of control; under setting [13], 89 % of control; under setting [14], 91 % of control.

As to `CC1=NCCCN=C(C)C(C)=NCCCN=C1C.[Ni+2].[O-][Cl+3]([O-])([O-])O`, the T/C was 91 % of control under setting [6]; 96 % of control (endpoint: mean survival time, dose: 50.0 mg/kg/injection, schedule: Q04DX002 (ip), vehicle: saline with Tween-80); 94 % of control under setting [15].

For `CCOC(=O)N1CCN(c2ccc(Cl)cc2)CC1`, the T/C runs as follows: (endpoint: mean survival time, dose: 100.0 mg/kg/injection, schedule: Q04DX003 (ip), vehicle: Klucel (hydroxypropylcellulose) (HPC)) 93 % of control; (endpoint: mean survival time, dose: 200.0 mg/kg/injection, schedule: Q04DX003 (ip), vehicle: Klucel (hydroxypropylcellulose) (HPC)) 91 % of control.

Take `CN1CC(C(=O)NC2CCCCC2)CC2c3cccc4[nH]cc(c34)CC21` (stereo not given): the T/C by setting is: under setting [15], 96 % of control; under setting [7], 92 % of control; under setting [8], 102 % of control.
